Assay results as given in patent US20220071996A1, “ORAL FORMULATIONS OF BRANAPLAM” (NOVARTIS AG, priority 2018, published 2022).
In brackets after ≈: the same amount, converted by molar mass. Where two headings read alike, the source gives them in different places.

Experiment: solubility of branaplam in selected excipients
Format: physicochemical
Conditions: pH 4, aqueous with cosolvent or surfactant or cyclodextrin, thermodynamic from solid
Experimental: Solubility of branaplam was evaluated in excipients, other than cyclodextrin, such as Cremophor RH40, Tween 80, PG, PEG300, and glycerol. These excipients and concentrations were selected as they are suitable for paediatric formulations. None of the tested excipients was able to support development of a formulation comprising branaplam at a concentration high enough (i.e. about 2 mg/ml or higher) to keep the dose volume in a suitable range (Table 6).
Solubility of branaplam was evaluated in excipients, other than cyclodextrin, such as Cremophor RH40, Tween 80, PG, PEG300, and glycerol. These excipients and concentrations were selected as they are suitable for paediatric formulations. None of the tested excipients was able to support development of a formulation comprising branaplam at a concentration high enough (i.e. about 2 mg/ml or higher) to keep the dose volume in a suitable range (Table 5a).
Solubility of branaplam was measured as follows: stock solutions for the excipients at target concentrations were prepared using milli-Q water and adjusted using pH 4.0 buffer. […] Suspensions were stirred for 24 hours (using a magnetic stirrer) ensuring sufficient swirling and monitoring the temperature. The suspensions were filtered through 0.45 μm nominal pore size filter (e.g. using a PES syringe), and the concentration of branaplam in the filtrate was measured using HPLC (high performance liquid chromatography). The measurements were performed in duplicate and average of the values are reported.

CC1(C)CC(Oc2ccc(-c3ccc(-c4cn[nH]c4)cc3O)nn2)CC(C)(C)N1 [branaplam, 5-(1H-pyrazol-4-yl)-2-(6-((2,2,6,6-tetramethylpiperidin-4-yl)oxy)pyridazin-3-yl)phenol]
solubility at 24 h (aqueous excipient stock solution, 2 °C, in Cremophor RH 40 1.0% (w/w), 2-8° C., read-out: Solubility (mg/mL) 2-8° C.): 0.17 mg/mL (≈ 432 µM) | solubility at 24 h (aqueous excipient stock solution, 2 °C, in Cremophor RH 40 3.5% (w/w), 2-8° C., read-out: Solubility (mg/mL) 2-8° C.): 0.44 mg/mL (≈ 1120 µM) | solubility at 24 h (aqueous excipient stock solution, 2 °C, in Cremophor RH 40 7.0% (w/w), 2-8° C., read-out: Solubility (mg/mL) 2-8° C.): 0.71 mg/mL (≈ 1800 µM) | solubility at 24 h (aqueous excipient stock solution, 2 °C, in Cremophor RH 40 15.0% (w/w), 2-8° C., read-out: Solubility (mg/mL) 2-8° C.): 1.19 mg/mL (≈ 3020 µM) | solubility at 24 h (aqueous excipient stock solution, 2 °C, in Glycerol 5.0% (w/v), pH 4.0 buffer, 2-8° C., read-out: Solubility (mg/mL) 2-8° C.): 0.2 mg/mL (≈ 508 µM) | solubility at 24 h (aqueous excipient stock solution, 2 °C, in Glycerol 10.0% (w/v), pH 4.0 buffer, 2-8° C., read-out: Solubility (mg/mL) 2-8° C.): 0.19 mg/mL (≈ 483 µM) | solubility at 24 h (aqueous excipient stock solution, 2 °C, in Glycerol 25.0% (w/w), 2-8° C., read-out: Solubility (mg/mL) 2-8° C.): 0.37 mg/mL (≈ 940 µM) | solubility at 24 h (aqueous excipient stock solution, 2 °C, in PEG 300 5.0% (w/v), pH 4.0 buffer, 2-8° C., read-out: Solubility (mg/mL) 2-8° C.): 0.27 mg/mL (≈ 686 µM) | solubility at 24 h (aqueous excipient stock solution, 2 °C, in PEG 300 10.0% (w/v), pH 4.0 buffer, 2-8° C., read-out: Solubility (mg/mL) 2-8° C.): 0.34 mg/mL (≈ 864 µM) | solubility at 24 h (aqueous excipient stock solution, 2 °C, in PEG 300 25.0% (w/v), pH 4.0 buffer, 2-8° C., read-out: Solubility (mg/mL) 2-8° C.): 0.87 mg/mL (≈ 2210 µM) | solubility at 24 h (aqueous excipient stock solution, 2 °C, in PEG 400 5.0% (w/v), pH 4.0 buffer, 2-8° C., read-out: Solubility (mg/mL) 2-8° C.): 0.21 mg/mL (≈ 534 µM) | solubility at 24 h (aqueous excipient stock solution, 2 °C, in PEG 400 10.0% (w/v), pH 4.0 buffer, 2-8° C., read-out: Solubility (mg/mL) 2-8° C.): 0.45 mg/mL (≈ 1140 µM) | solubility at 24 h (aqueous excipient stock solution, 2 °C, in PEG 400 25.0% (w/v), pH 4.0 buffer, 2-8° C., read-out: Solubility (mg/mL) 2-8° C.): 0.93 mg/mL (≈ 2360 µM) | solubility at 24 h (aqueous excipient stock solution, 2 °C, in Propylene glycol 5.0% (w/v), pH 4.0 buffer, 2-8° C., read-out: Solubility (mg/mL) 2-8° C.): 0.16 mg/mL (≈ 407 µM) | solubility at 24 h (aqueous excipient stock solution, 2 °C, in Propylene glycol 10.0% (w/v), pH 4.0 buffer, 2-8° C., read-out: Solubility (mg/mL) 2-8° C.): 0.18 mg/mL (≈ 457 µM) | solubility at 24 h (aqueous excipient stock solution, 2 °C, in Propylene glycol 25.0% (w/v), pH 4.0 buffer, 2-8° C., read-out: Solubility (mg/mL) 2-8° C.): 0.42 mg/mL (≈ 1070 µM) | solubility at 24 h (aqueous excipient stock solution, 2 °C, in Tween 80 0.5% (w/v), pH 4.0 buffer, 2-8° C., read-out: Solubility (mg/mL) 2-8° C.): 0.16 mg/mL (≈ 407 µM) | solubility at 24 h (aqueous excipient stock solution, 2 °C, in Tween 80 0.8% (w/v), pH 4.0 buffer, 2-8° C., read-out: Solubility (mg/mL) 2-8° C.): 0.22 mg/mL (≈ 559 µM) | solubility at 24 h (aqueous excipient stock solution, 2 °C, in Tween 80 1.5% (w/v), pH 4.0 buffer, 2-8° C., read-out: Solubility (mg/mL) 2-8° C.): 0.29 mg/mL (≈ 737 µM) | solubility at 24 h (aqueous excipient stock solution, 2 °C, in Tween 80 5.0% (w/v), pH 4.0 buffer, 2-8° C., read-out: Solubility (mg/mL) 2-8° C.): 0.73 mg/mL (≈ 1860 µM) | solubility at 24 h (aqueous excipient stock solution, 25 °C, in Cremophor RH 40 1.0% (w/w), RT, read-out: Solubility (mg/mL) RT): 0.28 mg/mL (≈ 712 µM) | solubility at 24 h (aqueous excipient stock solution, 25 °C, in Cremophor RH 40 3.5% (w/w), RT, read-out: Solubility (mg/mL) RT): 0.53 mg/mL (≈ 1350 µM) | solubility at 24 h (aqueous excipient stock solution, 25 °C, in Cremophor RH 40 7.0% (w/w), RT, read-out: Solubility (mg/mL) RT): 0.84 mg/mL (≈ 2130 µM) | solubility at 24 h (aqueous excipient stock solution, 25 °C, in Cremophor RH 40 15.0% (w/w), RT, read-out: Solubility (mg/mL) RT): 1.32 mg/mL (≈ 3350 µM) | solubility at 24 h (aqueous excipient stock solution, 25 °C, in Glycerol 5.0% (w/v), pH 4.0 buffer, RT, read-out: Solubility (mg/mL) RT): 0.18 mg/mL (≈ 457 µM) | solubility at 24 h (aqueous excipient stock solution, 25 °C, in Glycerol 10.0% (w/v), pH 4.0 buffer, RT, read-out: Solubility (mg/mL) RT): 0.22 mg/mL (≈ 559 µM) | solubility at 24 h (aqueous excipient stock solution, 25 °C, in Glycerol 25.0% (w/w), RT, read-out: Solubility (mg/mL) RT): 0.38 mg/mL (≈ 966 µM) | solubility at 24 h (aqueous excipient stock solution, 25 °C, in PEG 300 5.0% (w/v), pH 4.0 buffer, RT, read-out: Solubility (mg/mL) RT): 0.39 mg/mL (≈ 991 µM) | solubility at 24 h (aqueous excipient stock solution, 25 °C, in PEG 300 10.0% (w/v), pH 4.0 buffer, RT, read-out: Solubility (mg/mL) RT): 0.64 mg/mL (≈ 1630 µM) | solubility at 24 h (aqueous excipient stock solution, 25 °C, in PEG 300 25.0% (w/v), pH 4.0 buffer, RT, read-out: Solubility (mg/mL) RT): 1.61 mg/mL (≈ 4090 µM) | solubility at 24 h (aqueous excipient stock solution, 25 °C, in PEG 400 5.0% (w/v), pH 4.0 buffer, RT, read-out: Solubility (mg/mL) RT): 0.39 mg/mL (≈ 991 µM) | solubility at 24 h (aqueous excipient stock solution, 25 °C, in PEG 400 10.0% (w/v), pH 4.0 buffer, RT, read-out: Solubility (mg/mL) RT): 0.63 mg/mL (≈ 1600 µM) | solubility at 24 h (aqueous excipient stock solution, 25 °C, in PEG 400 25.0% (w/v), pH 4.0 buffer, RT, read-out: Solubility (mg/mL) RT): 1.47 mg/mL (≈ 3740 µM) | solubility at 24 h (aqueous excipient stock solution, 25 °C, in Propylene glycol 5.0% (w/v), pH 4.0 buffer, RT, read-out: Solubility (mg/mL) RT): 0.27 mg/mL (≈ 686 µM) | solubility at 24 h (aqueous excipient stock solution, 25 °C, in Propylene glycol 10.0% (w/v), pH 4.0 buffer, RT, read-out: Solubility (mg/mL) RT): 0.37 mg/mL (≈ 940 µM) | solubility at 24 h (aqueous excipient stock solution, 25 °C, in Propylene glycol 25.0% (w/v), pH 4.0 buffer, RT, read-out: Solubility (mg/mL) RT): 0.94 mg/mL (≈ 2390 µM) | solubility at 24 h (aqueous excipient stock solution, 25 °C, in Tween 80 0.5% (w/v), pH 4.0 buffer, RT, read-out: Solubility (mg/mL) RT): 0.25 mg/mL (≈ 635 µM) | solubility at 24 h (aqueous excipient stock solution, 25 °C, in Tween 80 0.8% (w/v), pH 4.0 buffer, RT, read-out: Solubility (mg/mL) RT): 0.28 mg/mL (≈ 712 µM) | solubility at 24 h (aqueous excipient stock solution, 25 °C, in Tween 80 1.5% (w/v), pH 4.0 buffer, RT, read-out: Solubility (mg/mL) RT): 0.41 mg/mL (≈ 1040 µM) | solubility at 24 h (aqueous excipient stock solution, 25 °C, in Tween 80 5.0% (w/v), pH 4.0 buffer, RT, read-out: Solubility (mg/mL) RT): 0.89 mg/mL (≈ 2260 µM) | solubility at 24 h (glycerol 25.0% (w/v) aqueous solution in pH 4.0 buffer, 2 °C, in Glycerol 25.0% (w/v), pH 4.0 buffer, 2-8° C., read-out: Solubility (mg/mL) 2-8° C.): 0.37 mg/mL (≈ 940 µM) | solubility at 24 h (glycerol 25.0% (w/v) aqueous solution in pH 4.0 buffer, 25 °C, in Glycerol 25.0% (w/v), pH 4.0 buffer, RT, read-out: Solubility (mg/mL) RT): 0.38 mg/mL (≈ 966 µM)
